According to ChEMBL document CHEMBL3393036, “Tetra-substituted pyridinylimidazoles as dual inhibitors of p38α mitogen-activated protein kinase and c-Jun N-terminal kinase 3 for potential treatment of neurodegenerative diseases” (J Med Chem, 2015):

Columns and labels:
[1] = target: T1, Serine/threonine-protein kinase 17B (Homo sapiens) (UniProt O94768); test: Inhibition of STK17B (unknown origin) at 5.5 uM by Caliper Mobility Shift Assay
T1 sequence (whole entry): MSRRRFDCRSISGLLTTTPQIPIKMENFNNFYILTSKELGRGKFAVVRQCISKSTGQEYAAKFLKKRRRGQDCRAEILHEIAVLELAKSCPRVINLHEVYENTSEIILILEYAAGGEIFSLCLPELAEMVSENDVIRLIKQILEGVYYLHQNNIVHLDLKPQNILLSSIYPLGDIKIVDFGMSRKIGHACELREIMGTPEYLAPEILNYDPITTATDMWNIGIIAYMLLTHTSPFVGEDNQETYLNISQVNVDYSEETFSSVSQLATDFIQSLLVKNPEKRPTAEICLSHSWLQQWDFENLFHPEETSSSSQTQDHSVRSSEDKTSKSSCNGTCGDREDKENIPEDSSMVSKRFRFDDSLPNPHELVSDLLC

[2] = target: Ribosomal protein S6 kinase beta-2 (Homo sapiens) (UniProt Q9UBS0); test: Inhibition of S6K (unknown origin) at 5.5 uM by Caliper Mobility Shift Assay
Chain of Ribosomal protein S6 kinase beta-2 (Homo sapiens) (Q9UBS0 whole entry): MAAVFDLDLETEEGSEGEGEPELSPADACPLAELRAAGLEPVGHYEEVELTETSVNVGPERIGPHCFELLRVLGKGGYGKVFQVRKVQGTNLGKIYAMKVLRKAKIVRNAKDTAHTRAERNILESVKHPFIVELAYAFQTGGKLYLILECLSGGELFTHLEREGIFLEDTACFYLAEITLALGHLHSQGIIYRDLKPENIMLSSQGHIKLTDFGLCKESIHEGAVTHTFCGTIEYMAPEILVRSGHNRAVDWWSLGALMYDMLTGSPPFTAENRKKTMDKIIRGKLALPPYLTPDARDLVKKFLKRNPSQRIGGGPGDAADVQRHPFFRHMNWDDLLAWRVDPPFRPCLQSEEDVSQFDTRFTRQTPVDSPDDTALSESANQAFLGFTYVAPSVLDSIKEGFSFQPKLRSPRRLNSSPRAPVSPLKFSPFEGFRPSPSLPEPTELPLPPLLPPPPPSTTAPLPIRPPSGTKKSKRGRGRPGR

[3] = target: Glycogen synthase kinase-3 beta (Homo sapiens) (UniProt P49841); test: Inhibition of GSK3beta (unknown origin) at 5.5 uM by Caliper Mobility Shift Assay
Chain of Glycogen synthase kinase-3 beta (Homo sapiens) (P49841 whole entry, looked up): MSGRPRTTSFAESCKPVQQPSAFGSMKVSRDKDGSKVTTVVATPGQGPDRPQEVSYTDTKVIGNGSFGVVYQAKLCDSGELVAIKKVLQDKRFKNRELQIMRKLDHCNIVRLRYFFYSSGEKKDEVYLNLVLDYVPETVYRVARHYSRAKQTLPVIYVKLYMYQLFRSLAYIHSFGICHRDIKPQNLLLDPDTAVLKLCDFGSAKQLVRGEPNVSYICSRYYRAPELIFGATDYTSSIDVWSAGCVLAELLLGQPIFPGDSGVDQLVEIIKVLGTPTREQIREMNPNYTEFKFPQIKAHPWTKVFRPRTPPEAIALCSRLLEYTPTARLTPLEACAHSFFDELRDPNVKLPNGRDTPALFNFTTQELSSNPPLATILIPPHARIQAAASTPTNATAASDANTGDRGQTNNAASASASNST

[4] = target: Mitogen-activated protein kinase kinase kinase 8 (Homo sapiens) (UniProt P41279); test: Inhibition of MAP3K8 (unknown origin) at 5.5 uM by Caliper Mobility Shift Assay
Chain of Mitogen-activated protein kinase kinase kinase 8 (Homo sapiens) (P41279 whole entry): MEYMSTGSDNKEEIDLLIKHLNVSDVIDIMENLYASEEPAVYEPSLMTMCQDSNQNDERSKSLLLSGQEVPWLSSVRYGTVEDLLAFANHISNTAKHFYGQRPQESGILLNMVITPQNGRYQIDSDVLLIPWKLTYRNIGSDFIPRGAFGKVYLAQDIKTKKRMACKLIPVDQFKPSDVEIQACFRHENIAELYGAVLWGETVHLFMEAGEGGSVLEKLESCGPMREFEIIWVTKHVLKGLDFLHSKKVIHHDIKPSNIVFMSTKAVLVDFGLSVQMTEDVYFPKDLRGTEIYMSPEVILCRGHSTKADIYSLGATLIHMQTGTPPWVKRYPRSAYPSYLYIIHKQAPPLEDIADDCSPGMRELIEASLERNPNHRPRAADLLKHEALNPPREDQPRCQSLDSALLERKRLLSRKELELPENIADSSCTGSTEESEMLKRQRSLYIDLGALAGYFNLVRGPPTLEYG

[5] = target: Fibroblast growth factor receptor 1 (Homo sapiens) (UniProt P11362); test: Inhibition of FGFR1 (unknown origin) at 5.5 uM by Caliper Mobility Shift Assay
Chain of Fibroblast growth factor receptor 1 (Homo sapiens) (P11362 22-822 limits assumed): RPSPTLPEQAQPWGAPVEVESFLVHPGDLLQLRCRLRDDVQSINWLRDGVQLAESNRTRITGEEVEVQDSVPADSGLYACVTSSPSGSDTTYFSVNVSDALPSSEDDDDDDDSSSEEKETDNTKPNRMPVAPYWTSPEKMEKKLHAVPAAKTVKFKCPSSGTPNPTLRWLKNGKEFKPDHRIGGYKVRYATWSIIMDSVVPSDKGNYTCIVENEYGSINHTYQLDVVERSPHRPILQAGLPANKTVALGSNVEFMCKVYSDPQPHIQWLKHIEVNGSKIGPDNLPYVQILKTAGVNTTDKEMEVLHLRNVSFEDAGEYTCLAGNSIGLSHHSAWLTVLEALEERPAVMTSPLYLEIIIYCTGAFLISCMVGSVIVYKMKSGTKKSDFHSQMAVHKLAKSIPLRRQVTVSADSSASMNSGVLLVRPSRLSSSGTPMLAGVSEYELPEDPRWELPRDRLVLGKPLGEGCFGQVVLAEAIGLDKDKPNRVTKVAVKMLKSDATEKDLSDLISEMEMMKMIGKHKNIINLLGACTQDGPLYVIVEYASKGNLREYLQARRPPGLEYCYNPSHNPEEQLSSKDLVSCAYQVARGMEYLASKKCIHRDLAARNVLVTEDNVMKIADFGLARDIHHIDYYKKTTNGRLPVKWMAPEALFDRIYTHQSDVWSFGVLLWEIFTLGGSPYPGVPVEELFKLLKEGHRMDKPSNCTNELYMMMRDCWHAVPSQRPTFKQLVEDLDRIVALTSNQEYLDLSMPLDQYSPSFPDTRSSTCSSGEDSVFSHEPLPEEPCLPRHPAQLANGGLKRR

[6] = target: Mitogen-activated protein kinase kinase kinase kinase 4 (Homo sapiens) (UniProt O95819); test: Inhibition of MAP4K4 (unknown origin) at 5.5 uM by Caliper Mobility Shift Assay
Chain of Mitogen-activated protein kinase kinase kinase kinase 4 (Homo sapiens) (O95819 2-1239 limits assumed): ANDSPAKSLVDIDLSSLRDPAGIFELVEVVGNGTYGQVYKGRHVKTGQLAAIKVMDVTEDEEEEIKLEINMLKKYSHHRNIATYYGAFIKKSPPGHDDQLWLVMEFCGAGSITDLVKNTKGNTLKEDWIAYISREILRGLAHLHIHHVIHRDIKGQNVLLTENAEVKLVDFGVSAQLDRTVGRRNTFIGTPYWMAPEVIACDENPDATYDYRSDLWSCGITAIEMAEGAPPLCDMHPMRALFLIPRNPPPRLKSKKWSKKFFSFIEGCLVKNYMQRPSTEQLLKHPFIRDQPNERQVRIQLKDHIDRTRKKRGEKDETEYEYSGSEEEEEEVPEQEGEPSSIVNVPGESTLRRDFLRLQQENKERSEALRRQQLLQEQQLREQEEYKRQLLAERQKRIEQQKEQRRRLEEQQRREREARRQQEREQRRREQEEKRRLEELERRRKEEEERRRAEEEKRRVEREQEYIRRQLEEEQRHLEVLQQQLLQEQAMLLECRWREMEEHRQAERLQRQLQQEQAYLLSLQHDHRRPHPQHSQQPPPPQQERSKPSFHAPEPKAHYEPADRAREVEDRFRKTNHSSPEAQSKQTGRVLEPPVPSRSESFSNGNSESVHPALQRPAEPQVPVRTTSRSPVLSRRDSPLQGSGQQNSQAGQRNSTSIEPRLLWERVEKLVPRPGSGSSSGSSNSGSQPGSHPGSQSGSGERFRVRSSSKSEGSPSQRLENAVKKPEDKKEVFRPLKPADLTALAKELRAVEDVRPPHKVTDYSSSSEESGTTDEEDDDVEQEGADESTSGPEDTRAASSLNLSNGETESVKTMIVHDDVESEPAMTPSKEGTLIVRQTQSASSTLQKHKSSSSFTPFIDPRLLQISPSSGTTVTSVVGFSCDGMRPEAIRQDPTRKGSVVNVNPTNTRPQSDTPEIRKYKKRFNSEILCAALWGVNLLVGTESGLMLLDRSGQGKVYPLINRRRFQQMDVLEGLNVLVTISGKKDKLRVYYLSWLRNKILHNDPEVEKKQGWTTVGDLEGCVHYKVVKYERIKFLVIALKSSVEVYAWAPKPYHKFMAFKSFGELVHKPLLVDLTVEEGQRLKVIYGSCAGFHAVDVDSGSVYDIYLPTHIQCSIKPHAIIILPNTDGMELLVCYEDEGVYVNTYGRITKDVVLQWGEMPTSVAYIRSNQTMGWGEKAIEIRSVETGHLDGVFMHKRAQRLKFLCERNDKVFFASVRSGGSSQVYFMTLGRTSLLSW

[7] = target: T2, Activin receptor type-1 (Homo sapiens) (UniProt Q04771); test: Inhibition of ALK2 (unknown origin) assessed as phosphorylation of ATF-2 at 5.5 uM by ELISA
T2 sequence (whole entry): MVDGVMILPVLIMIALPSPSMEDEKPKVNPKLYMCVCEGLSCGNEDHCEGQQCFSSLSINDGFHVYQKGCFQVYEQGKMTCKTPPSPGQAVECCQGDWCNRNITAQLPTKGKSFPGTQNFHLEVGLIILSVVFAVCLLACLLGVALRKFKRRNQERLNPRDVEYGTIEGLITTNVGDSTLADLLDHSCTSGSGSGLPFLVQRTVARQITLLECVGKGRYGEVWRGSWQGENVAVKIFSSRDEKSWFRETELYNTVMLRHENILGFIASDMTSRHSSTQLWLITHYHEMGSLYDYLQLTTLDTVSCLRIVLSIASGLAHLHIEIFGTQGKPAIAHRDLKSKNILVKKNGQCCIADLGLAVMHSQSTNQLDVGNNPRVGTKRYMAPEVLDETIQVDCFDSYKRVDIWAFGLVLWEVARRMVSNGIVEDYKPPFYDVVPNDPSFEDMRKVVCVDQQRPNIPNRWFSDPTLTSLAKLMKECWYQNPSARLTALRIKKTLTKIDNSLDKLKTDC

[8] = target: Epidermal growth factor receptor (Homo sapiens) (UniProt P00533); test: Inhibition of EGFR (unknown origin) assessed as phosphorylation of ATF-2 at 5.5 uM by ELISA
Chain of Epidermal growth factor receptor (Homo sapiens) (P00533 whole entry): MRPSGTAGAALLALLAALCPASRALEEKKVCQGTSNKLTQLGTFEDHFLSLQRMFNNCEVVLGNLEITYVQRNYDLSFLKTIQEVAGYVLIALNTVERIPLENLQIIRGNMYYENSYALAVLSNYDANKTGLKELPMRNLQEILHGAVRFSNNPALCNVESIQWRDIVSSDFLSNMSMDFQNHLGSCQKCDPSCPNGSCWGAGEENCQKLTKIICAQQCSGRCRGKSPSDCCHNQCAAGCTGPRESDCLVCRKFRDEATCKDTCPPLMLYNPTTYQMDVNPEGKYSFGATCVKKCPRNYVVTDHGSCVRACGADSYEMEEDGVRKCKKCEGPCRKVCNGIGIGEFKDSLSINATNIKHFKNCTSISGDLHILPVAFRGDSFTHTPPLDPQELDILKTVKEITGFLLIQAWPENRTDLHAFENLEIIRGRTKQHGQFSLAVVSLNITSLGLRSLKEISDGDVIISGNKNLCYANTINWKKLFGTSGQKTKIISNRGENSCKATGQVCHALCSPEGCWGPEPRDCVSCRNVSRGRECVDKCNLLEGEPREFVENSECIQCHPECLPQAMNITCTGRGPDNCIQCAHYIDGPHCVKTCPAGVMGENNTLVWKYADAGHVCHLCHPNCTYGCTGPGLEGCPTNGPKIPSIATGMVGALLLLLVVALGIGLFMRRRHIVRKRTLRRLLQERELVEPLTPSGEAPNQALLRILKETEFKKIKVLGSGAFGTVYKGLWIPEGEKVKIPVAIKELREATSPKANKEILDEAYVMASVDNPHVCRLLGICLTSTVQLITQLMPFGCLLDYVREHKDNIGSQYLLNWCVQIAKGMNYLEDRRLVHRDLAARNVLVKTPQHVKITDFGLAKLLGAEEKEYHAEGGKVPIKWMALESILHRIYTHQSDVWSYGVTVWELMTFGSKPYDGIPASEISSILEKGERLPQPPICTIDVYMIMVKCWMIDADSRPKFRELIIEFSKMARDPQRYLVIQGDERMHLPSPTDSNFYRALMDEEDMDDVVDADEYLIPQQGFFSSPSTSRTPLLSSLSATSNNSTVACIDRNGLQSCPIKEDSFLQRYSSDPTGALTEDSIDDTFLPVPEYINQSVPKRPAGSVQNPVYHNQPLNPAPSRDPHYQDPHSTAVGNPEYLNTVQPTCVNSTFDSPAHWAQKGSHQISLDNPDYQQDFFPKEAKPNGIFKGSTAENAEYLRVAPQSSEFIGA

inhibition [1]	inhibition [2]	inhibition [3]	inhibition [4]	inhibition [5]	inhibition [6]	inhibition [7]	inhibition [8]	SMILES
< 50%	< 50%	< 50%	< 50%	< 50%	< 50%	–	–	CC(=O)Nc1cc(-c2c(-c3ccc(F)cc3)nc(S/C=C\C(=O)O)n2CC2CCCO2)ccn1 (racemic)
< 50%	< 50%	< 50%	< 50%	< 50%	< 50%	–	–	CC(=O)Nc1cc(-c2c(-c3ccc(F)cc3)nc(S/C=C\C(=O)O)n2C2CCCCC2)ccn1
< 50%	< 50%	< 50%	< 50%	< 50%	< 50%	–	–	COC(Cn1c(SC2CCC(C(=O)O)CC2O)nc(-c2ccc(F)cc2)c1-c1ccnc(NC(C)=O)c1)OC (configuration not stated)
< 50%	< 50%	< 50%	< 50%	< 50%	< 50%	60.6%	51.8%	CC(=O)Nc1cc(-c2c(-c3ccc(F)cc3)nc(S/C=C\C(=O)O)n2C2CC2)ccn1
< 50%	< 50%	< 50%	< 50%	< 50%	< 50%	–	–	CC(=O)Nc1cc(-c2c(-c3ccc(F)cc3)nc(Sc3cccc(I)n3)n2C2CCCCC2)ccn1
